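Protocol summary: plate cells (96-well), add compound at 5 concentrations, incubate 48 h, interpolate endpoints linearly. GI50 marks 50% less growth.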 Calls of active or inactive are those of the source. Cut-off read from the data, not from the text of the source: active = GI50 up to about 1.1 µM and inactive = higher.
How the values were obtained:
Experiment in all cases: inhibition of tumour cell growth, NCI panel, 48 h
A498 = system: A498
CAKI-1 = system: CAKI-1
HT-29 = system: HT-29
Hs-578T = system: Hs-578T
M14 = system: M14
MCF7 = system: MCF7
MDA-N = system: MDA-N
RPMI-8226 = system: RPMI-8226
SF-268 = system: SF-268
SF-539 = system: SF-539
SK-MEL-28 = system: SK-MEL-28
SK-MEL-2 = system: SK-MEL-2
SK-MEL-5 = system: SK-MEL-5
SN12C = system: SN12C
TK-10 = system: TK-10
UACC-257 = system: UACC-257
UACC-62 = system: UACC-62
UO-31 = system: UO-31
HCT-15 = system: HCT-15
HOP-92 = system: HOP-92

Compound	GI50 (A498)	GI50 (CAKI-1)	GI50 (HT-29)	GI50 (Hs-578T)	GI50 (M14)	GI50 (MCF7)	GI50 (MDA-N)	GI50 (RPMI-8226)	GI50 (SF-268)	GI50 (SF-539)	GI50 (SK-MEL-28)	GI50 (SK-MEL-2)	GI50 (SK-MEL-5)	GI50 (SN12C)	GI50 (TK-10)	GI50 (UACC-257)	GI50 (UACC-62)	GI50 (UO-31)	GI50 (HCT-15)	GI50 (HOP-92)
CCOC(=O)c1c(NC(=O)c2ccc(Br)cc2)sc2c1CCCC2	25.1 µM (inactive)	> 100 µM (inactive)	> 100 µM (inactive)	75.5 µM (inactive)	> 100 µM (inactive)	> 100 µM (inactive)	> 100 µM (inactive)	> 100 µM (inactive)	> 100 µM (inactive)	> 100 µM (inactive)	> 100 µM (inactive)	> 100 µM (inactive)	> 100 µM (inactive)	> 100 µM (inactive)	> 100 µM (inactive)	> 100 µM (inactive)	> 100 µM (inactive)	> 100 µM (inactive)	–	–
O=C1C(NCCc2cc(Cl)c(O)c(Cl)c2)=CC(=O)c2[nH]cnc21	75.7 µM (inactive)	–	40.4 µM (inactive)	80 µM (inactive)	10.7 µM (inactive)	26.9 µM (inactive)	19.6 µM (inactive)	46.7 µM (inactive)	–	39.5 µM (inactive)	28 µM (inactive)	19.2 µM (inactive)	17.3 µM (inactive)	30 µM (inactive)	51.8 µM (inactive)	26 µM (inactive)	18.8 µM (inactive)	> 100 µM (inactive)	39.1 µM	–
C/C(=C\c1ccccc1)C(=O)NCc1ccc(C(=O)NCCC(C)C)cc1	27 µM (inactive)	93.8 µM (inactive)	41.8 µM (inactive)	–	> 100 µM (inactive)	> 100 µM (inactive)	> 100 µM (inactive)	> 100 µM (inactive)	42.6 µM (inactive)	32.9 µM (inactive)	> 100 µM (inactive)	> 100 µM (inactive)	> 100 µM (inactive)	52.7 µM (inactive)	> 100 µM (inactive)	> 100 µM (inactive)	15.6 µM (inactive)	37.8 µM (inactive)	> 100 µM	49.5 µM (inactive)
O=C(N/N=C/c1ccc(Cl)cc1)c1ccccc1Nc1ccccc1C(=O)N/N=C/c1ccc(Cl)cc1	> 100 µM (inactive)	> 100 µM (inactive)	> 100 µM (inactive)	–	33 µM (inactive)	> 100 µM (inactive)	> 100 µM (inactive)	> 100 µM (inactive)	> 100 µM (inactive)	–	> 100 µM (inactive)	> 100 µM (inactive)	> 100 µM (inactive)	> 100 µM (inactive)	> 100 µM (inactive)	> 100 µM (inactive)	> 100 µM (inactive)	> 100 µM (inactive)	> 100 µM	> 100 µM (inactive)
COc1ccc2nc3ccc(OC)cc3c(SCc3ccc([N+](=O)[O-])cc3)c2c1	> 100 µM (inactive)	44.1 µM (inactive)	24.1 µM (inactive)	–	> 100 µM (inactive)	–	> 100 µM (inactive)	–	54.7 µM (inactive)	39.2 µM (inactive)	> 100 µM (inactive)	> 100 µM (inactive)	–	> 100 µM (inactive)	34 µM (inactive)	> 100 µM (inactive)	> 100 µM (inactive)	> 100 µM (inactive)	> 100 µM	> 100 µM (inactive)
CCN(CC)C(=S)Nc1ccc(-c2cc3ccc(O)cc3oc2=O)cc1	20.8 µM (inactive)	31.2 µM (inactive)	16.8 µM (inactive)	25.4 µM (inactive)	27.2 µM (inactive)	> 10 µM (inactive)	24.8 µM (inactive)	21.6 µM (inactive)	32.1 µM (inactive)	29.2 µM (inactive)	25.9 µM (inactive)	20.3 µM (inactive)	22.3 µM (inactive)	27 µM (inactive)	39 µM (inactive)	22 µM (inactive)	32.4 µM (inactive)	17.5 µM (inactive)	19.7 µM	–
CN1CCC/C1=C1/C(=O)N(c2ccccc2)N=C1c1ccc[nH]1	> 100 µM (inactive)	> 100 µM (inactive)	–	> 100 µM (inactive)	> 100 µM (inactive)	> 100 µM (inactive)	> 100 µM (inactive)	> 100 µM (inactive)	> 100 µM (inactive)	–	> 100 µM (inactive)	> 100 µM (inactive)	> 100 µM (inactive)	> 100 µM (inactive)	> 100 µM (inactive)	> 100 µM (inactive)	> 100 µM (inactive)	> 100 µM (inactive)	> 100 µM	–
CC(=O)C1=C(C)N(c2ccccc2)C2(O)C=CC(O)=C3C(=O)c4ccccc4C(=O)C312 (stereo unspecified)	23 µM (inactive)	14.3 µM (inactive)	4.7 µM (inactive)	41.7 µM (inactive)	20.3 µM (inactive)	22.3 µM (inactive)	–	3.37 µM (inactive)	20.2 µM (inactive)	21.1 µM (inactive)	19 µM (inactive)	15.3 µM (inactive)	10.6 µM (inactive)	10.6 µM (inactive)	24.7 µM (inactive)	5.65 µM (inactive)	15.6 µM (inactive)	16.3 µM (inactive)	6.47 µM	25.6 µM (inactive)
O=C(c1cccnc1)N1N=C(c2ccc(Cl)cc2)CC1(O)c1cc(F)c(Cl)cc1Cl (stereo unspecified)	–	28.5 µM (inactive)	14.8 µM (inactive)	29.4 µM (inactive)	22 µM (inactive)	–	16.7 µM (inactive)	12.2 µM (inactive)	19.2 µM (inactive)	12.2 µM (inactive)	23.6 µM (inactive)	22 µM (inactive)	11.3 µM (inactive)	14.1 µM (inactive)	41.1 µM (inactive)	18.5 µM (inactive)	–	15.9 µM (inactive)	13.6 µM	17.5 µM (inactive)
COc1cc(NS(C)(=O)=O)ccc1NCc1c[nH]c2ccc3ncccc3c12	23.1 µM (inactive)	22.4 µM (inactive)	23.2 µM (inactive)	19.7 µM (inactive)	16.3 µM (inactive)	19.4 µM (inactive)	–	11.3 µM (inactive)	22.4 µM (inactive)	19.3 µM (inactive)	23.1 µM (inactive)	19.5 µM (inactive)	12.4 µM (inactive)	20.6 µM (inactive)	28 µM (inactive)	17 µM (inactive)	17.3 µM (inactive)	26.4 µM (inactive)	21.7 µM	33 µM (inactive)
N#CCCC(CC#N)N1CCN(C(CC#N)CCC#N)CC1 (stereo unspecified)	–	> 100 µM (inactive)	> 100 µM (inactive)	–	> 100 µM (inactive)	> 100 µM (inactive)	> 100 µM (inactive)	> 100 µM (inactive)	> 100 µM (inactive)	> 100 µM (inactive)	> 100 µM (inactive)	–	> 100 µM (inactive)	> 100 µM (inactive)	> 100 µM (inactive)	> 100 µM (inactive)	> 100 µM (inactive)	> 100 µM (inactive)	> 100 µM	–
Clc1ccc(Cn2cc(/C=N/n3cnnc3)c3ccccc32)cc1	1.49 µM (inactive)	21.5 µM (inactive)	> 100 µM (inactive)	37.1 µM (inactive)	57 µM (inactive)	28.4 µM (inactive)	–	28.1 µM (inactive)	45.9 µM (inactive)	40.5 µM (inactive)	> 100 µM (inactive)	26.7 µM (inactive)	19.5 µM (inactive)	45.9 µM (inactive)	4.81 µM (inactive)	46.5 µM (inactive)	29 µM (inactive)	30.5 µM (inactive)	60.1 µM	14.6 µM (inactive)
CCC(C)(C)c1ccc(OCCCCNC(=O)c2ccc3ccccc3c2O)c(C(C)(C)CC)c1	29.7 µM (inactive)	23 µM (inactive)	44.7 µM (inactive)	31.5 µM (inactive)	48.9 µM (inactive)	28.3 µM (inactive)	35.6 µM (inactive)	–	22.7 µM (inactive)	33.1 µM (inactive)	13.6 µM (inactive)	30.8 µM (inactive)	19.3 µM (inactive)	34.6 µM (inactive)	13.4 µM (inactive)	28 µM (inactive)	16.3 µM (inactive)	29.3 µM (inactive)	0.425 µM	–
CCOC(OCC)[C@H](N)[C@@H](O)[C@@H](O)[C@H]1COC(C)(C)O1	> 100 µM (inactive)	–	> 100 µM (inactive)	> 100 µM (inactive)	> 100 µM (inactive)	> 100 µM (inactive)	> 100 µM (inactive)	> 100 µM (inactive)	> 100 µM (inactive)	–	> 100 µM (inactive)	> 100 µM (inactive)	> 100 µM (inactive)	> 100 µM (inactive)	> 100 µM (inactive)	> 100 µM (inactive)	> 100 µM (inactive)	> 100 µM (inactive)	> 100 µM	–
Cc1csc2c1-n1cccc1C2=O	36 µM (inactive)	65.8 µM (inactive)	> 100 µM (inactive)	> 100 µM (inactive)	> 100 µM (inactive)	> 100 µM (inactive)	99.1 µM (inactive)	> 100 µM (inactive)	> 100 µM (inactive)	–	> 100 µM (inactive)	> 100 µM (inactive)	> 100 µM (inactive)	> 100 µM (inactive)	> 100 µM (inactive)	> 100 µM (inactive)	> 100 µM (inactive)	43.3 µM (inactive)	> 100 µM	–
COc1nc(N(C)C)nc2c1[n+](C)cn2C [HETEROMINE A]	> 100 µM (inactive)	> 100 µM (inactive)	> 100 µM (inactive)	40.3 µM (inactive)	> 100 µM (inactive)	–	94.6 µM (inactive)	6.08 µM (inactive)	31.8 µM (inactive)	52.6 µM (inactive)	88.9 µM (inactive)	32.2 µM (inactive)	41.7 µM (inactive)	72.8 µM (inactive)	> 100 µM (inactive)	53.1 µM (inactive)	> 100 µM (inactive)	> 100 µM (inactive)	> 100 µM	> 100 µM (inactive)

— ChEMBL document CHEMBL1201862, “PubChem BioAssay data set” (2004)
